Measurements as given in patent US20190216793A1, “COMPOSITIONS AND METHODS FOR TREATING NEGATIVE SYMPTOMS IN NON-SCHIZOPHRENIC PATIENTS” (Minerva Neurosciences, Inc., priority 2016, published 2019).
Read-outs that look alike come from different tables or passages of the source.

Experiments:
[1] = QT interval association of metabolite; type: in vivo; conditions: supra-therapeutic levels
[2] = test system: α1-adrenergic receptors; test: receptor affinity; type: binding
[3] = biological target: T1, sigma2 (Homo sapiens, UniProt Q5BJF2); test: in vivo functional studies; design: In vivo functional studies have established that MIN-101 is an antagonist; from tissue; host or cells: whole organism in vivo
[4] = biological target: 5-hydroxytryptamine-2A (5-HT2A) (Homo sapiens, UniProt P28223); test: receptor affinity; type: binding
[5] = biological target: T1, sigma2; test: receptor affinity; type: binding
[6] = test system: patients with negative symptoms of schizophrenia; conditions: for improvement of negative symptoms compared to placebo: 32 mg and 64 mg daily doses, 244 schizophrenic patients; for effect size, PANSS Negative Subscale score (pentagonal model), change from baseline vs placebo: schizophrenic patients
[7] = test system: muscarinic receptors; test: receptor affinity; type: binding
[8] = biological target: T2, 5-HT2A receptors (Homo sapiens, UniProt P28223); test: in vivo functional studies
T2 construct: In vivo functional studies have established that MIN-101 is an antagonist; from tissue; host or cells: whole organism in vivo

[9] = test system: cholinergic receptors; test: receptor affinity; type: binding
[10] = test system: histaminergic receptors; test: receptor affinity; type: binding
[11] = test system: dopaminergic receptors; test: receptor affinity; type: binding

T1 sequence (Q5BJF2 whole entry): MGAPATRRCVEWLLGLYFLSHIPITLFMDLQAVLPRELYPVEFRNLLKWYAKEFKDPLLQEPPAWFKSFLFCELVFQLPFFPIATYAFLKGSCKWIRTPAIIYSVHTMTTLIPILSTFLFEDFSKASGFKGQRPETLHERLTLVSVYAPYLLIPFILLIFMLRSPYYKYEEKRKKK
Sequence of 5-hydroxytryptamine-2A (5-HT2A) (P28223 whole entry, species assumed): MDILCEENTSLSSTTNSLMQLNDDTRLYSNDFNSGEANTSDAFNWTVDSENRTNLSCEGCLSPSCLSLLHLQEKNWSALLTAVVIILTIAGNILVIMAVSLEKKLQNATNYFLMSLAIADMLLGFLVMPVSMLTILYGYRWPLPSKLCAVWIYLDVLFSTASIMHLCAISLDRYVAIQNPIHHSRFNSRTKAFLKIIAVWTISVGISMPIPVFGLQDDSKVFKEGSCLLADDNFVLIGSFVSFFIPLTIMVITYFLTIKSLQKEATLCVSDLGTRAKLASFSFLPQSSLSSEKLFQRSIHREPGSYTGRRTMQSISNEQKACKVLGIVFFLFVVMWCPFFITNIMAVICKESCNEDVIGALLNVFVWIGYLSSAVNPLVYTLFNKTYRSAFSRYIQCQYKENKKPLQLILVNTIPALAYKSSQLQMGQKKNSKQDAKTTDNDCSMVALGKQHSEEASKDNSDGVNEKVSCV
T2 sequence (P28223 whole entry): as the sequence (P28223 whole entry, species assumed) above

O=C1c2ccccc2CN1CC1CCN(CC(O)c2ccc(F)cc2)CC1 (stereo not drawn) [BFB-520]
effect on QT intervals [1]: prolongation of QT intervals

O=C(CN1CCC(CN2Cc3ccccc3C2=O)CC1)c1ccc(F)cc1 [Compound I]
affinity for α1-adrenergic receptors [2]: lower affinity levels
functional activity at sigma2 receptors [3]: antagonizes sigma2 activity
affinity for 5-HT2A [4]: specific affinities
affinity for sigma2 [5]: specific affinities
improvement of negative symptoms compared to placebo ([6]; 12 weeks): statistically significant improvement

Cl.O.O.O=C(CN1CCC(CN2Cc3ccccc3C2=O)CC1)c1ccc(F)cc1 [MIN-101, 2-{1-[2-(4-Fluorophenyl)-2-oxoethyl]piperidin-4-ylmethyl}-2,3-dihydroisoindol-1-one monohydrochloride dihydrate]
affinity for muscarinic receptors [7]: very low or no affinity
functional activity at sigma2 receptors [3]: antagonist
functional activity at 5-HT2A receptors [8]: antagonist
affinity for cholinergic receptors [9]: very low or no affinity
affinity for histaminergic receptors [10]: very low or no affinity
improvement of negative symptoms compared to placebo ([6]; 12 weeks): statistically significant benefit
effect size, PANSS Negative Subscale score (pentagonal model), change from baseline vs placebo ([6]; 32 mg daily, 12 weeks, p≤0.023): 0.45
effect size, PANSS total score vs placebo ([6]; 32 mg daily, 12 weeks, not significant): 0.35
effect size, PANSS three factors negative symptoms subscale vs placebo ([6]; 32 mg daily, 12 weeks, p≤0.006): 0.55
effect size, PANSS Negative Subscale score (pentagonal model), change from baseline vs placebo ([6]; 64 mg daily, 12 weeks, p≤0.003): 0.57
effect size, PANSS three factors negative symptoms subscale vs placebo ([6]; 64 mg daily, 12 weeks, p≤0.001): 0.70
effect size, PANSS total score vs placebo ([6]; 64 mg daily, 12 weeks, p≤0.003): 0.59
positive symptoms during the trial ([6]; 12-week trial): remained stable
effect on negative symptoms measured using the BNSS total score ([6]; both doses (32 mg and 64 mg daily), 12 weeks): Improvement in negative symptoms
incidence and types of side effects, MIN-101 group vs placebo group ([6]; human, in vivo): did not differ significantly
metabolic adverse effects ([6]; human, in vivo): no metabolic adverse effects
prolactin elevation ([6]; human, in vivo): no prolactin elevation
affinity for dopaminergic receptors [11]: very low or no affinity
